21 molecules from ChEMBL document CHEMBL1122254, “Sulfonyliminoimidazolidines. A new class of oral hypoglycemic agents. 1. 1-[[p-[2-(acylamino)ethyl]phenyl]sulfonyl]-2-iminoimidazolidines” (1983) can be followed below.

What all share (format): functional
Assay [1] deals with Rattus norvegicus. The assay can be described thus: Hypoglycemic activity by lowering blood glucose in normal rats by 20% after oral administration.
Assay [2] concerns Rattus norvegicus. The assay can be described thus: Compound evaluated for hypoglycemic activity by lowering blood glucose in streptozotocin-diabetic rats by 20% after oral administration; Highest dose tested; Inactive(less than 10% blood sugar decrease).
The subject of assay [3] is Rattus norvegicus. Nature of the assay: Compound evaluated for hypoglycemic activity by lowering blood glucose in normal rats by 20% after oral administration; Inactive (less than 10% blood sugar decrease).
The subject of assay [4] is Rattus norvegicus. Nature of the assay: Compound evaluated for hypoglycemic activity by lowering blood glucose in normal rats by 20% after oral administration (highest dose tested).
Assay [5] relates to Rattus norvegicus. The assay can be described thus: Compound evaluated for hypoglycemic activity by lowering blood glucose in streptozotocin-diabetic rats by 20% after oral administration (highest dose tested).
Assay [6] deals with Rattus norvegicus. The assay can be described thus: Hypoglycemic activity by lowering blood glucose in normal rats by 50% after oral administration.
The subject of assay [7] is Rattus norvegicus. The assay can be described thus: Compound evaluated for hypoglycemic activity by lowering blood glucose in normal rats by 20% after oral administration; inactive (less than 10% blood sugar decrease).
Assay [8] concerns Rattus norvegicus. Nature of the assay: Compound evaluated for hypoglycemic activity by lowering blood glucose in streptozotocin-diabetic rats by 20% after oral administration.
The test system of assay [9] is Rattus norvegicus. The assay can be described thus: Compound evaluated for hypoglycemic activity by lowering blood glucose in streptozotocin-diabetic rats by 20% after oral administration; Inactive(less than 10% blood sugar decrease).
Assay [10] has as its system Rattus norvegicus. The assay can be described thus: Compound evaluated for hypoglycemic activity by lowering blood glucose in normal rats by 20% after oral administration.
Assay [11] has as its system Rattus norvegicus. The assay can be described thus: Compound evaluated for hypoglycemic activity by lowering blood glucose in normal rats by 50% after oral administration.
Assay [12] relates to Rattus norvegicus. The assay can be described thus: Compound evaluated for hypoglycemic activity by lowering blood glucose in streptozotocin-diabetic rats by 20% after oral administration; Highest dose tested.
The test system of assay [13] is Rattus norvegicus. The assay can be described thus: Compound evaluated for hypoglycemic activity by lowering blood glucose in normal rats by 50% after oral administration (highest dose tested).
Assay [14] has as its system Rattus norvegicus. Nature of the assay: Compound evaluated for hypoglycemic activity by lowering blood glucose in normal rats by 50% after oral administration; inactive(less than 10% blood sugar decrease).
Assay [15] relates to Rattus norvegicus. Nature of the assay: Compound evaluated for hypoglycemic activity by lowering blood glucose in normal rats by 20% after oral administration; highest dose tested;inactive(less than 10% blood sugar decrease).

As to `N=C1N(C2CCCCC2)CCN1S(=O)(=O)c1ccc(CCNC(N)=O)cc1`, the figures for the ED20 in the assay with Rattus norvegicus [1] and with Rattus norvegicus [2] were 0.39 mmol/kg and greater than 0.76 mmol/kg, respectively.

In the assay on Rattus norvegicus [3], `COCC(=O)NCCc1ccc(S(=O)(=O)N2CCN(C3CCCCC3)C2=N)cc1` had an ED20 greater than 0.92 mmol/kg.

Molecule `N=C1N(C2CCCCC2)CCN1S(=O)(=O)c1ccc(CCNC(=O)c2ccccn2)cc1` had an ED20 with Rattus norvegicus [4] greater than 0.83 mmol/kg.

`N=C1N(C2CCCCC2)CCN1S(=O)(=O)c1ccc(CCNC(=O)c2cccnc2)cc1`: the ED20 in the assay with Rattus norvegicus [1] is 0.034 mmol/kg; with Rattus norvegicus [5] it was greater than 0.22 mmol/kg. The ED50 (in general, the dose that gives a 50% effect, or the effect in half of the subjects) in the assay on Rattus norvegicus [6] was 160 µmol/kg.

With `Cc1cnc(C(=O)NCCc2ccc(S(=O)(=O)N3CCN(C4CCCCC4)C3=N)cc2)cn1`, the ED20 with Rattus norvegicus [1] is 0.01 mmol/kg; with Rattus norvegicus [5], greater than 0.61 mmol/kg. Besides, it took a dose of 100 µmol/kg to reach the 50% effect level with Rattus norvegicus [6] (ED50).

For `Cc1ncsc1C(=O)NCCc1ccc(S(=O)(=O)N2CCN(C3CCCCC3)C2=N)cc1`, the ED20 with Rattus norvegicus [7] is greater than 0.22 mmol/kg.

Take `COc1cccc(C(=O)NCCc2ccc(S(=O)(=O)N3CCN(C4CCCCC4)C3=N)cc2)c1`: the ED20 worked out at 0.062 mmol/kg in the assay with Rattus norvegicus [1] and 0.31 mmol/kg with Rattus norvegicus [8]. The molecule also registered an ED50 with Rattus norvegicus [6] of 380 µmol/kg.

Consider `CCCC(=O)NCCc1ccc(S(=O)(=O)N2CCN(C3CCCCC3)C2=N)cc1`, for which the ED20 in the assay on Rattus norvegicus [1] was 0.024 mmol/kg; in the assay on Rattus norvegicus [8], 0.52 mmol/kg. In addition, the ED50 in the assay with Rattus norvegicus [6] was found to be 83 µmol/kg.

Turning to `N=C1N(C2CCCCC2)CCN1S(=O)(=O)c1ccc(CCNC(=O)c2cnccn2)cc1`, the ED20 in the assay on Rattus norvegicus [1] was 0.12 mmol/kg; in the assay on Rattus norvegicus [5], greater than 0.22 mmol/kg. The molecule also returned an ED50 in the assay on Rattus norvegicus [6] of 480 µmol/kg.

Regarding `N=C1N(C2CCCCC2)CCN1S(=O)(=O)c1ccc(CCNC(=O)C(N)c2ccccc2)cc1` (configuration not stated), the ED20 with Rattus norvegicus [1] was 0.029 mmol/kg; in the assay with Rattus norvegicus [9], greater than 0.18 mmol/kg. The ED50 with Rattus norvegicus [6] was 76 µmol/kg.

For `CCS(=O)(=O)CC(=O)NCCc1ccc(S(=O)(=O)N2CCN(C3CCCCC3)C2=N)cc1`, the values for the ED20 in the assay with Rattus norvegicus [1] and with Rattus norvegicus [8] were 0.11 mmol/kg and 0.83 mmol/kg, respectively. In the assay on Rattus norvegicus [6], the ED50 was 530 µmol/kg.

Consider `N=C1N(C2CCCCC2)CCN1S(=O)(=O)c1ccc(CCNC(=O)c2ccc[n+]([O-])c2)cc1`, for which the ED20 was 0.042 mmol/kg in the assay on Rattus norvegicus [10] and greater than 0.64 mmol/kg in the assay on Rattus norvegicus [9].

In turn, `N=C1N(C2CCCCC2)CCN1S(=O)(=O)c1ccc(CCNC(=O)c2ccccc2)cc1` came in with an ED20 with Rattus norvegicus [10] of 0.021 mmol/kg. This molecule also came in with an ED50 in the assay on Rattus norvegicus [11] of 200 µmol/kg.

As for `C[S+]([O-])CC(=O)NCCc1ccc(S(=O)(=O)N2CCN(C3CCCCC3)C2=N)cc1` (configuration not stated), the ED20 in the assay with Rattus norvegicus [1] was 0.12 mmol/kg; in the assay on Rattus norvegicus [2], greater than 0.66 mmol/kg.

`CC[S+]([O-])CCC(=O)NCCc1ccc(S(=O)(=O)N2CCN(C3CCCCC3)C2=N)cc1` (configuration not stated): the figures for the ED20 in the assay on Rattus norvegicus [1] and with Rattus norvegicus [12] were 0.031 mmol/kg and greater than 0.62 mmol/kg, respectively. This molecule also registered a median effective dose (ED50) in the assay on Rattus norvegicus [6] of 200 µmol/kg.

Regarding `CN(C)C(C(=O)NCCc1ccc(S(=O)(=O)N2CCN(C3CCCCC3)C2=N)cc1)c1ccccc1` (configuration not stated), the ED20 in the assay with Rattus norvegicus [1] is 0.037 mmol/kg; in the assay with Rattus norvegicus [12], greater than 0.55 mmol/kg. In addition, the median effective dose (ED50) in the assay on Rattus norvegicus [6] was determined as 170 µmol/kg.

Regarding `N=C1N(C2CCCCC2)CCN1S(=O)(=O)c1ccc(CCNC(=O)c2cncnc2)cc1`, the ED20 in the assay with Rattus norvegicus [1] is 0.2 mmol/kg; in the assay with Rattus norvegicus [5] it was greater than 0.59 mmol/kg. This molecule also came in with an ED50 in the assay on Rattus norvegicus [13] greater than 590 µmol/kg.

As for `CCC[S+]([O-])CC(=O)NCCc1ccc(S(=O)(=O)N2CCN(C3CCCCC3)C2=N)cc1` (configuration not stated), the ED20 with Rattus norvegicus [1] is 0.071 mmol/kg; with Rattus norvegicus [2] it was greater than 0.62 mmol/kg.

Take `COc1ccc(Cl)cc1C(=O)NCCc1ccc(S(=O)(=O)NC(=O)NC2CCCCC2)cc1` [GLYBURIDE]: the ED20 in the assay with Rattus norvegicus [1] was 0.004 mmol/kg; in the assay on Rattus norvegicus [9], greater than 0.5 mmol/kg. Further, in the assay on Rattus norvegicus [6], the ED50 worked out at 20 µmol/kg.

Turning to `N=C(N)NC(=N)NCCc1ccccc1` [PHENFORMIN], the ED50 in the assay on Rattus norvegicus [14] is greater than 1000 µmol/kg. The ED20 in the assay with Rattus norvegicus [15] was greater than 1 mmol/kg; with Rattus norvegicus [8] it was 0.16 mmol/kg.

In the case of `CCCCNC(=O)NS(=O)(=O)c1ccc(C)cc1` [TOLBUTAMIDE], the ED20 in the assay with Rattus norvegicus [10] was 0.056 mmol/kg; in the assay on Rattus norvegicus [9], greater than 1 mmol/kg. Moreover, the ED50 in the assay on Rattus norvegicus [11] turned out to be 300 µmol/kg.
